From patent US8173654B2, “Triazolopyridazine compounds” (Janssen Pharmaceutica N.V., priority 2005, dated 2012)

How the values were obtained:
[1] = target: T1, c-Met (Homo sapiens, UniProt P08581); assay: Cell based ELISA assay for HGF stimulated c-Met phosphorylation in S114 cells; set-up: expressed in transfected cells; host or cells: S114 (murine NIH 3T3 derived); settings: read-out: c-Met Cell ELISA IC-50
Procedure: A cell based ELISA assay was developed to evaluate the ability of compounds to inhibit HGF stimulated c-Met phosphorylation in cells.
S114 cells were seeded to a 96 well tissue culture treated dish at a concentration of 5×10^4 per well. After a 16-20 hour incubation, culture medium was removed and replaced with serum free medium supplemented with 0.5% BSA. Test compound was then added and incubated with the cells for 60 minutes, followed by the addition of 1 μl HGF at […] for 15 minutes. […] Following another 1 hour incubation at room temperature the plates were washed three times with Delfia wash buffer (Perkin Elmer). After the final wash, […] of Delfia enhancer solution (Perkin Elmer) was added and allowed to incubate for 60 minutes. Plates were read on an LJL Analyst instrument (Molecular Devices; Sunnyvale, Calif.) with filter settings of 360 excitation, 620 emission, and 410 dichroic. IC50 values were calculated using Graphpad Prism software (Graphpad Software; San Diego, Calif.).
Target sequence in this assay (P08581 25-1390): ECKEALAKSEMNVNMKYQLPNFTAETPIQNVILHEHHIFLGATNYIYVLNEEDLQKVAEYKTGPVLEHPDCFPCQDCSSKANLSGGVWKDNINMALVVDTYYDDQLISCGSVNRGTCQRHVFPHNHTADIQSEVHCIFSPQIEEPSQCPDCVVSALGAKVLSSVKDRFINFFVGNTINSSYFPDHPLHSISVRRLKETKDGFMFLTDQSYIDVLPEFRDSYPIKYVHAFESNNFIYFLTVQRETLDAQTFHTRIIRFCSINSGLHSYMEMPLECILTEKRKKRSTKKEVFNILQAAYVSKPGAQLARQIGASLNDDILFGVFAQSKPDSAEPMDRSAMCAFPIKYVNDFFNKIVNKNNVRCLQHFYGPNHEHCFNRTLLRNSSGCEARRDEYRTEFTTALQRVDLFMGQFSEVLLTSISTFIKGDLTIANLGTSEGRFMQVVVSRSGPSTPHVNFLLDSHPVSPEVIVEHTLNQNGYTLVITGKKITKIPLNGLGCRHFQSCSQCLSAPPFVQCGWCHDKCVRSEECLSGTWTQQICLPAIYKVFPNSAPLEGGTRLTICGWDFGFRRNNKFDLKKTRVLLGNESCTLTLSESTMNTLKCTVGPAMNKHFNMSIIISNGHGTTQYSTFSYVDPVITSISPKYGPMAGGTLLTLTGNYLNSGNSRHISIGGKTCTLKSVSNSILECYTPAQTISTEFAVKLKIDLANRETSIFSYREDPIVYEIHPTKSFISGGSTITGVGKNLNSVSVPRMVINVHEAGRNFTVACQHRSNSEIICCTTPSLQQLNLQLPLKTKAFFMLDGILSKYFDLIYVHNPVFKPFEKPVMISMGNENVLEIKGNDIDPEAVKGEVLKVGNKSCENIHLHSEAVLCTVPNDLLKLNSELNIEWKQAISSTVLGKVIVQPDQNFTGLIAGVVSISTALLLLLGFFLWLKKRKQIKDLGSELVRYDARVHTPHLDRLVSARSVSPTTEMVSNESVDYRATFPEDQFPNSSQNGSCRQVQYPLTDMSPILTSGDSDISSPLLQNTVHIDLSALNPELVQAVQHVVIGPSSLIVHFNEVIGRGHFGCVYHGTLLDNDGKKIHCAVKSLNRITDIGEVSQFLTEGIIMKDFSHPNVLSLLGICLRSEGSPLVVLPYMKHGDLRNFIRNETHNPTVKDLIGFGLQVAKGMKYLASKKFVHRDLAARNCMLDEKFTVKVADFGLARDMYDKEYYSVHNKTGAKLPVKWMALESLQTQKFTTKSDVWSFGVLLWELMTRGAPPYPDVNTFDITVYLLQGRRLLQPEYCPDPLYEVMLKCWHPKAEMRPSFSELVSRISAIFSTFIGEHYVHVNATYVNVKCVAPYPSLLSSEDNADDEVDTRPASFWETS

[2] = target: T1, c-Met; assay: Delfia autophosphorylation kinase assay on the c-Met; assay type: biochemical; set-up: The purified His6 tagged cytoplasmic domain of c-Met was diluted to a concentration of 500 ng/ml; host or cells: Sf9 insect cells (baculovirus, pFastBacHTa); settings: His6 tagged cytoplasmic domain of c-Met, 1 μM ATP; read-out: cMet Delfia autophos IC-50
Procedure: A DELFIA time resolved fluorescence assay was developed for screening of compounds that decreases the autophosphorylation thus the kinase activity of c-Met. The DELFIA assay is non-radioactive. The autophosphorylation of the c-Met is measured by an anti-phosphotyrosine antibody coupled to an Europium tag.
A major advantage of this format is that it allowed for the development of an autophosphorylation assay using Ni-chelate plates which bind the hexa-his tag on the recombinant Met kinase. The autophosphorylation assay allows one to use a known substrate, Met kinase itself, for the phosphorylation.
The assay procedure for screening is as follows. The purified His6 tagged cytoplasmic domain of c-Met was diluted to a concentration of 500 ng/ml in enzyme dilution buffer (50 mM Tris-HCl, pH8.0, 0.1% BSA) and dispensed to assay plates at a volume of 50 μl per well. Black opaque HisGrab Nickel coated 96 well plates (Pierce, Rockford, Ill.) were selected for use. Next, 2.5 μl of compound in 40% DMSO was added to test wells, 2.5 μl of 40% DMSO only was added to the negative control wells. The autophosphorylation reaction was initiated upon the addition of 50 μl of reaction buffer, 50 mM Tris-HCl, pH 8.0, 10 mM MgCl2, 0.1 mM Na3VO4, 1 mM DTT, 1 μM ATP. Plates were incubated at room temperature for 1 hour followed by 2 washes with 200 μl/well of PBS. Europium conjugated anti-phosphotyrosine antibody, Eu-PY20 from Perkin Elmer was diluted to 50 ng/ml in Delfia AB buffer (Perkin Elmer, Boston, Mass.), added to the 96 well assay plates at a volume of 100 μl/well, and incubated at room temperature for 2 hours. Assay plates were then washed 4 times each with 200 μl/well of Delfia wash buffer (Perkin Elmer). After the final wash 150 μl of Delfia Enhancement solution (Perkin Elmer) was added to each well of the assay plate and incubated at room temperature for 1 hour. Plates were read on an LJL Analyst instrument (Molecular Devices; Sunnyvale, Calif.) with filter settings of 360 excitation, 620 emission, and 410 dichroic. IC50 values were calculated using Graphpad Prism software (Graphpad Software; San Diego, Calif.).
Target sequence in this assay (P08581 956-1390 limits assumed): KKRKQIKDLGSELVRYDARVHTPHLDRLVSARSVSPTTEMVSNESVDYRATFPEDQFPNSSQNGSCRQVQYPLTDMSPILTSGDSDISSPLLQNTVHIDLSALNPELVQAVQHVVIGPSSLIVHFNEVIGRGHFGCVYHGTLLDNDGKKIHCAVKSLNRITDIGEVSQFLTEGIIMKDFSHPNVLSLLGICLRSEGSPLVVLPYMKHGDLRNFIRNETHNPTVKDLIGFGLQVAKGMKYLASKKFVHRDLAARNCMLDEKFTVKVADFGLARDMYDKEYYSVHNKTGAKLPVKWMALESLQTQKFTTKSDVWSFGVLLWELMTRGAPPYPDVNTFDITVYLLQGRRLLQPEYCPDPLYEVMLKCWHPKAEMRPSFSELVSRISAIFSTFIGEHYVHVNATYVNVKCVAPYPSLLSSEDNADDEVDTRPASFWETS

SMILES | IC50 [1] [nM] | IC50 [2] [nM]
c1cc2c(cc1Cc1nnc3ccc(-c4ccc(CN5CCOCC5)s4)nn13)CCO2 [Example 42, 3-(2,3-Dihydro-benzofuran-5-ylmethyl)-6-(5-morpholin-4-ylmethyl-thiophen-2-yl)-[1,2,4]triazolo[4,3-b]pyridazine] | 406 | 13
c1cnc2ccc(Cc3nnc4ccc(-n5ccnc5)nn34)cc2c1 [Example 43, 6-(6-Imidazol-1-yl-[1,2,4]triazolo[4,3-b]pyridazin-3-ylmethyl)-quinoline] | 140 | 11
Brc1cn(-c2ccc3nnc(Cc4ccc5ncccc5c4)n3n2)cn1 [Example 44, 6-[6-(4-Bromo-imidazol-1-yl)-[1,2,4]triazolo[4,3-b]pyridazin-3-ylmethyl]-quinoline] | 143 | 2
CN1CCN(C(=O)c2ccc(-c3ccc4nnc(Cc5ccc6ncccc6c5)n4n3)s2)CC1 [Example 47, (4-Methyl-piperazin-1-yl)-[5-(3-quinolin-6-ylmethyl-[1,2,4]triazolo[4,3-b]pyridazin-6-yl)-thiophen-yl]-methanone] | 1 | 0.4
CCOC(=O)c1ccc(-c2ccc3nnc(Cc4ccc(O)cc4)n3n2)s1 [Example 48, 5-[3-(4-Hydroxy-benzyl)-[1,2,4]triazolo[4,3-b]pyridazin-6-yl]-thiophene-2-carboxylic acid ethyl ester] | 14 | 2
CN(C)CCCNC(=O)c1ccc(-c2ccc3nnc(Cc4ccc(O)cc4)n3n2)s1 [Example 49, 5-[3-(4-Hydroxy-benzyl)-[1,2,4]triazolo[4,3-b]pyridazin-6-yl]-thiophene-2-carboxylic acid (3-dimethylamino-propyl)-amide] | 343 | 2.1
CN1CCN(C(=O)c2ccc(-c3ccc4nnc(Cc5ccc6c(c5)CCO6)n4n3)s2)CC1 [Example 50, {5-[3-(2,3-Dihydro-benzofuran-5-ylmethyl)-[1,2,4]triazolo[4,3-b]pyridazin-6-yl]-thiophen-2-yl}-(4-methyl-piperazin-1-yl)-methanone] | 12 | 2
COCCN(CCOC)C(=O)c1ccc(-c2ccc3nnc(Cc4ccc5c(c4)CCO5)n3n2)s1 [Example 51, 5-[3-(2,3-Dihydro-benzofuran-5-ylmethyl)-[1,2,4]triazolo[4,3-b]pyridazin-6-yl]-thiophene-2-carboxylic acid bis-(2-methoxy-ethyl)-amide] | 8 | 0.2
O=C(NCCN1CCOCC1)c1ccc(-c2ccc3nnc(Cc4ccc5c(c4)CCO5)n3n2)s1 [Example 52, 5-[3-(2,3-Dihydro-benzofuran-5-ylmethyl)-[1,2,4]triazolo[4,3-b]pyridazin-6-yl]-thiophene-2-carboxylic acid (2-morpholin-4-yl-ethyl)-amide] | 40 | 3
CC(C)CCNC(=O)c1ccc(-c2ccc3nnc(Cc4ccc5c(c4)CCO5)n3n2)s1 [Example 53, 5-[3-(2,3-Dihydro-benzofuran-5-ylmethyl)-[1,2,4]triazolo[4,3-b]pyridazin-6-yl]-thiophene-2-carboxylic acid (3-methyl-butyl)-amide] | 35 | 4
CC(C)N1CCN(C(=O)c2ccc(-c3ccc4nnc(Cc5ccc6ncccc6c5)n4n3)s2)CC1 [Example 55, (4-Isopropyl-piperazin-1-yl)-[5-(3-quinolin-6-ylmethyl-[1,2,4]triazolo[4,3-b]pyridazin-6-yl)-thiophen-2-yl]-methanone] | 1 | 1
CS(=O)(=O)N1CCN(C(=O)c2ccc(-c3ccc4nnc(Cc5ccc6ncccc6c5)n4n3)s2)CC1 [Example 56, (4-Methanesulfonyl-piperazin-1-yl)-[5-(3-quinolin-6-ylmethyl-[1,2,4]triazolo[4,3-b]pyridazin-6-yl)-thiophen-2-yl]-methanone] | 23 | 0.9
COc1ccc(C(F)(F)c2nnc3ccc(-c4cccs4)nn23)cc1 [Example 58, 3-[Difluoro-(4-methoxy-phenyl)-methyl]-6-thiophen-2-yl-[1,2,4]triazolo[4,3-b]pyridazine] | 314 | 95
FC(F)(c1ccc2ncccc2c1)c1nnc2ccc(-c3cccnc3)nn12 [Example 59, 6-[Difluoro-(6-pyridin-3-yl-[1,2,4]triazolo[4,3-b]pyridazin-3-yl)-methyl]-quinoline] | 8 | 3
Cn1cc(-c2ccc3nnc(Cc4ccc5c(c4)CCO5)n3n2)cn1 [Example 62, 3-(2,3-Dihydro-benzofuran-5-ylmethyl)-6-(1-methyl-1H-pyrazol-4-yl)-[1,2,4]triazolo[4,3-b]pyridazine] | 270 | 20
c1cnc2ccc(Cc3nnc4ccc(-c5cncnc5)nn34)cc2c1 [Example 64, 6-(6-Pyrimidin-5-yl-[1,2,4]triazolo[4,3-b]pyridazin-3-ylmethyl)-quinoline] | 170 | 17
c1cnc2ccc(Cc3nnc4ccc(-c5cnc6ccccc6c5)nn34)cc2c1 [Example 65, 6-(6-Quinolin-3-yl-[1,2,4]triazolo[4,3-b]pyridazin-3-ylmethyl)-quinoline] | 2 | 0.3
FC(F)(c1ccc2ncccc2c1)c1nnc2ccc(-c3cnc4ccccc4c3)nn12 [Example 66, 6-[Difluoro-(6-quinolin-3-yl-[1,2,4]triazolo[4,3-b]pyridazin-3-yl)-methyl]-quinoline] | 5 | 0.9
COc1ccc(Cn2cnc3ccc(Cc4nnc5ccc(-c6cccnc6)nn45)cc3c2=O)cc1 [Example 68, 3-(4-Methoxy-benzyl)-6-(6-pyridin-3-yl-[1,2,4]triazolo[4,3-b]pyridazin-3-ylmethyl)-3H quinazolin-4-one] | 30 | 2
O=c1[nH]cnc2ccc(Cc3nnc4ccc(-c5cccnc5)nn34)cc12 [Example 69, 6-(6-Pyridin-3-yl-[1,2,4]triazolo[4,3-b]pyridazin-3-ylmethyl)-3H-quinazolin-4-one] | > 1000 | 17
Cn1cc(-c2ccc3nnc(Cc4ccc5ncncc5c4)n3n2)cn1 [Example 70, 6-[6-(1-Methyl-1H-pyrazol-4-yl)-[1,2,4]triazolo[4,3-b]pyridazin-3-ylmethyl]-quinazoline] | 140 | 25
Cn1cc(-c2ccc3nnc(Cc4ccc5nccnc5c4)n3n2)cn1 [Example 71, 6-[6-(1-Methyl-1H-pyrazol-4-yl)-[1,2,4]triazolo[4,3-b]pyridazin-3-ylmethyl]-quinoxaline] | 99 | 20
c1cnc2ccc(Cc3nnc4ccc(-c5cc6ccccc6s5)nn34)cc2c1 [Example 72, 6-(6-Benzo[b]thiophen-2-yl-[1,2,4]triazolo[4,3-b]pyridazin-3-ylmethyl)-quinoline] | 0.2 | 0.3
[O-][n+]1cccc2cc(Cc3nnc4ccc(-c5cn[nH]c5)nn34)ccc21 [Example 73, 6-[6-(1H-Pyrazol-4-yl)-[1,2,4]triazolo[4,3-b]pyridazin-3-ylmethyl]-quinolin-1-ol] | 0.5 | 0.1
OCCCn1cc(-c2ccc3nnc(Cc4ccc5ncccc5c4)n3n2)cn1 [Example 75, 3-[4(3-Quinolin-6-ylmethyl-[1,2,4]triazolo[4,3-b]pyridazin-6-yl)-pyrazol-1-yl]-propan-1-ol] | 60 | 0.8
c1cnc2ccc(Cc3nnc4ccc(-c5cn[nH]c5)nn34)cc2c1 [Example 76, 6-[6-(1H-Pyrazol-4-yl)-[1,2,4]triazolo[4,3-b]pyridazin-3-ylmethyl]-quinoline] | 180 | 4
